Measurements published in patent publication US20160199445A1, “USE OF ARPIN A NEW INHIBITOR OF THE ARP2/3 COMPLEX FOR THE DIAGNOSIS AND TREATMENT OF DISEASES” (CENTRE NATIONAL DE LA RECHERCHE SCIENTIFIQUE, priority 2013, published 2016).

Assays:
Arp2/3 complex [1] = assay: Pyrene-actin polymerisation assay (spectrofluorimetry); type: biochemical; settings: for inhibition of VCA-activated Arp2/3 actin polymerisation: 2 μM actin (10% pyrene-labelled), 500 nM VCA, 20 nM Arp2/3
Description: (§1) FIG. 1: Arpin inhibits Arp2/3 activation in vitro. a, Alignment of acidic C-termini of 3 NPFs and of Arpin. […] Pulldown was performed with HeLa cell extract and GST fusions of Arpin full length (FL), Arpin deleted of its last 16 amino-acids (ΔA), the last 16 amino-acids (A) or the VCA domain of N-WASP as a positive control. Arp2/3 binding was assessed by western blot against the ArpC2 subunit. c, Spectrofluorimetry assay to monitor actin polymerisation.
Conditions: 2 μM Actin (10% pyrene-labelled), 20 nM Arp2/3, 500 nM Scar VCA, 5 μM Arpin.
FIG. 8: Determination of apparent Kd from Arpin inhibition of Arp2/3 nucleation. a, Arpin inhibits Arp2/3 activation in the pyrene-actin assay.
(§2) Arp2/3 is displaced from its interaction with 5 μM GST N-WASP VCA immobilized on glutathione beads by the Arpin Acidic peptide (304 μM and serial 2-fold dilutions).
(§3) Pyrene actin assays and monitoring of the branching reaction were performed as described in reference 38 with the conditions described in figure legends. VCA refers to the VCA domain of WAVE1 purified as described^39.

Arp2/3 complex [2] = assay: Competition pulldown: HeLa cell extract and GST N-WASP VCA immobilized on glutathione beads; type: binding; settings: 5 μM GST N-WASP VCA; Arpin/ArpinΔA 18 μM, ArpinA 304 μM and serial 2-fold dilutions
Description: as §1, §2
(§4) 6. GST Pull Down, Immunoprecipitations, SDS-PAGE and Western Blots HeLa cells were lysed in 50 mM Tris-HCl, 150 mM NaCl, 1 mM EDTA, 1 mM DTT, 0.5% Triton-X100, 5% glycerol, pH 7.5. 20 μg of GST fusion protein associated with 20 μl of glutathione sepharose 4B beads (GE […]) were incubated with 1 ml of HeLa cell extracts for 2 h at 4° C. Beads were washed and analysed by western blot.

prechordal plate cells = assay: Prechordal plate cell migration and protrusions in morpholino-injected zebrafish embryos; type: in vivo
Description: FIG. 17: Arpin regulates protrusion frequency of prechordal plate cells and their collective migration in zebrafish embryos. a, In situ hybridisation of arpin probe in zebrafish embryos at different stages. arpin mRNAs are maternally deposited. During gastrulation, arpin is expressed in hypoblast, which includes the prechordal plate. b, 3D trajectories of prechordal plate cells in embryos injected with control or arpin morpholino. During fish gastrulation, prechordal plate cells migrate collectively in a straight direction from the margin of the embryo towards the animal pole^32,33. […] Lateral displacement is the cell movement perpendicular to main direction of the migration. Distance between cells refers to the average distance of the nucleus of a given cell to the nuclei of its 5 closest neighbors. Mean±sem; n≧1469; *** P<0.001, t-test. c, At the onset of gastrulation prechordal plate cells derived from morpholino injected embryos were transplanted into the prechordal plate of an untreated host embryo at the same stage in order to allow imaging of cell autonomous effects on protrusion formation. Donor embryos are injected with control or arpin morpholinos and mRNAs encoding Lifeact-mCherry as well as GFP-Arpin for the rescue. Time lapse imaging of injected cells is performed by epifluorescence to reveal Lifeact a marker of filamentous actin, which stains actin-based protrusions. […]

trout keratocytes = assay: Microinjection of purified protein into migrating fish keratocytes; type: cell-based, brook trout (Salvelinus fontinalis); settings: injected fish keratocytes; for turning (direction autocorrelation): n≧8, P<0.05 between 16 and 272 s
Description: FIG. 24: Arpin microinjection induces fish keratocyte to turn. a, Trout keratocytes were micro-injected with purified full length Arpin, ArpinΔA or buffer as control. Upon micro-injection of Arpin, lamellipodia were modified and the cells turned. Scale bar, 20 μm. b, Quantifications of the indicated parameters. Mean±sem; n≧8, * P<0.05, *** P<0.001, ANOVA. c, Kymograph of the Arpin microinjected keratocyte. The leading edge undergoes cycles of protrusions and retractions. d, Model. Directional persistence of migration in this cell system requires a positive feedback loop. Branched actin is sensed and activates Rac as a response. In this context, WAVE closes a positive feedback loop. In contrast, Arpin closes a negative feedback loop. These two nested positive and negative feedback loops can account for the oscillatory behavior of the leading edge observed upon Arpin micro-injection.
FIG. 25: Procedures to quantify fish keratocyte migration. a, Kymograph analysis. Lamellipodial dynamics were studied along a one-pixel-wide line oriented in the direction of protrusions, using the MultiKymograph plug-in in ImageJ. Protrusion velocity was the average of all protrusion slopes at the front of the cell. Projections along the distance axis and the time axis, gave, respectively, length and duration of the protrusion. Cell speed was determined using the slope of the dashed line indicating the rear of the cell. b, Outline analysis. Cell contours were defined using CellTrack software (http://db.cse.ohio-state.edu/CellTrack) and manually adjusted when necessary. The cell from frame t is overlayed with the same cell in frame t+100 s, using their center of mass as a reference. The non-overlapping areas are summed up to give the cell deformation between these two frames. […]
Keratocytes were isolated from scales of freshly killed brook trout (Salvelinus fontinalis) as previously described^41 and imaged by phase contrast on an inverted Zeiss Axioscope using ×63 optics, and a halogen lamp as light source. […] Contours were analysed using the CellTrack software (OHIO STATE UNIVERSITY). […]

Arp2/3 complex [3] = assay: Assembly of branched actin networks monitored by TIRF microscopy; type: biochemical; settings: 1 μM actin, 150 nM VCA, 80 nM Arp2/3, Arpin at 5 μM; 5, 10, 15 and 20 min
Description: as §1
FIG. 10: Quantification of Arpin inhibition on the generation of branched actin networks. Conditions as in FIG. 1d. Images were extracted from the TIRF movies, 5, 10, 15 and 20 min after initiation of the reaction. The number of branches and filaments were counted and the ratio determined.
as §3

Arp2/3 complex [4] = assay: Fluorescence anisotropy based determination of Kd (labelled ArpinA peptide, purified Arp2/3 complex); type: binding; settings: for displacement of labelled ArpinA peptide bound to the Arp2/3 complex: titration of labelled ArpinA peptide/Arp2/3 complex with purified protein
Description: FIG. 5: Arpin directly binds to the Arp2/3 complex with a dissociation constant of 200 nM. a, Fluorescence anisotropy measurements of labelled ArpinA peptide binding at equilibrium to the purified Arp2/3 complex at the indicated concentrations. b, Labelled ArpinA peptide bound to the Arp2/3 complex was then titrated with purified Arpin FL, ArpinΔA or unlabelled ArpinA peptide as indicated. […] Curves that best fit the values yield the indicated equilibrium constants.
The ArpinA peptide was synthesized and labelled with 5-TAMRA at the N-terminus (PROTEOGENIX). The peptide was excited with polarised light at 549 nm and emitted light was detected at 573 nm using a MOS450 fluorimeter (BIOLOGIC). Measurements were made for 60 s at 1 point/s and the average anisotropy was calculated with the Biologic software. Fits were performed as described in reference 40.

Arp2/3 complex [5] = assay: GST fusion pulldown of Arp2/3 from HeLa cell extract (western blot against ArpC2); type: binding; settings: GST fusions
Description: as §1, §4

MDA-MB-231 cells = assay: Electroporation of MDA-MB-231 cells with purified Arpin; analysis of cell migration; type: cell-based, human
Description: FIG. 27: Electroporation of MDA-MB-231 cells with purified Arpin; analysis of cell migration.
Purified recombinant Arpin can be introduced efficiently into various cell types by electroporation as shown in FIG. 26 with retinal pigment epithelial (RPE-I) cells, mouse embryonic fibroblasts (MEFs) and breast invasive human cell line MDA-MB-231. MDA-MB-231 cells depleted of Arpin migrates faster and more directionally than their respective non-targeting controls (shCtrl).

| Kd (Arp2/3 complex [1]; in a mixture including actin and the VCA, best fit of number of actin barbed ends, read-out: apparent Kd for the Arp2/3 complex from inhibition of Arp2/3 nucleation) [nM] | Kd (Arp2/3 complex [4]; fluorescence anisotropy, purified Arp2/3 complex, read-out: dissociation constant for binding to the Arp2/3 complex) [nM] | Substance | inhibition of VCA-activated Arp2/3 actin polymerisation (Arp2/3 complex [1]) | inhibition of VCA-activated Arp2/3 actin polymerisation (Arp2/3 complex [1]; listed as Acidic peptide) | competition with the NPF (VCA) for Arp2/3 binding (Arp2/3 complex [2]) | dispersion of prechordal plate cells (lateral displacement, distance between cells) (prechordal plate cells; embryos injected with control or arpin morpholino, n≧1469, P<0.001) | probability of presence of protrusions and their duration (prechordal plate cells; transplanted prechordal plate cells from morpholino injected embryos, P<0.05) | territory explored (Mean Square Displacement) (trout keratocytes; n≧8, P<0.001) | turning (direction autocorrelation) (trout keratocytes) | effect on spontaneous actin nucleation and activation of the Arp2/3 complex (Arp2/3 complex [1]; 2 μM Actin (10% pyrene-labelled), 20 nM Arp2/3, 500 nM Scar VCA, 5 μM Arpin) | frequency of branches in actin networks (ratio branches/filaments) (Arp2/3 complex [3]) | displacement of labelled ArpinA peptide bound to the Arp2/3 complex (Arp2/3 complex [4]) | Arp2/3 binding in pulldown (Arp2/3 complex [5]) | speed and persistence of migration (MDA-MB-231 cells; Arpin-depleted MDA-MB-231 cells electroporated with purified Arpin) | idling (active movement) (MDA-MB-231 cells; MDA-MB-231 cells electroporated with Arpin protein) |
| --- | --- | --- | --- | --- | --- | --- | --- | --- | --- | --- | --- | --- | --- | --- | --- |
| – | – | ArpinA: ArpinA peptide, residues 211-226 of full length Arpin (last 16 amino-acids, EIREQGDGAEDEEWDD) | inhibits Arp2/3 activation in a dose dependent manner | sufficient for this inhibition, although it was less effective than full length Arpin | competes with the NPF for Arp2/3 binding | – | – | – | – | – | – | – | – | – | – |
| – | – | GTTGTCATAAATACGACTCATCTTC (all phosphorodiamidate morpholino (PMO)) [arpin morpholino] | – | – | – | induces dispersion as evidenced by increased lateral cell displacement and a higher distance between cells | increases the probability of presence of protrusions | – | – | – | – | – | – | – | – |
| 760 ± 156 | 200 | Arpin: protein of SEQ ID NO: 1, product of human C15orf38 gene (residues 1-226); new inhibitor of the Arp2/3 complex | inhibited actin polymerisation in a dose-dependent manner | – | Arp2/3 is displaced from its interaction with the VCA | – | – | explore a smaller territory than the controls | turn more than wild type | does not affect spontaneous actin nucleation and does not activate the Arp2/3 complex | decreases the frequency of branches in actin networks | displaces the labelled ArpinA peptide more efficiently than the A peptide | binds to the Arp2/3 complex through its acidic C-terminal region | speed and persistence decreased | more idling (less active movement) |
| – | – | ArpinΔA: Arpin deleted of its last 16 amino-acids (residues 1-210); human or zebrafish recombinant | not | – | not | – | – | – | turn more than wild type but less than wild type Arpin injected keratocytes | – | – | unable to displace the ArpinA peptide | – | – | – |
